According to patent US20160304957A1, “TREATMENT AND MODULATION OF GENE EXPRESSION AND SKIN AGING” (DSM NUTRITIONAL PRODUCTS LTD., priority 2006, published 2016):

Assays:
Type in all cases: cell-based, human
MMP-1 [1] = assay: ELISA of MMP-1 release into cell culture supernatant of HaCaT cells; conditions: 1, 10, or 100 nM RA; unpublished observations
Protocol: HaCaT cells were supplemented with 0.5, 1.5, or 3 μM β-carotene for 2 days prior to UVA (270 kJ/m^2) irradiation. MMP-1 and TIMP-1 secretion 24 hours after irradiation was analyzed by ELISA. Each condition was represented by three replicates in the experiment. Values are means±standard error.
Release of MMP-1, and TIMP-1 into cell culture supernatant was determined by ELISA at 24 hours after irradiation. MMP-1 and TIMP-1 release was measured using MMP-1 and TIMP ELISA from CALBIOCHEM (San Diego, Calif., USA). The ELISAs were performed according to the manufacturer's instructions.

MMP-10 = assay: QRT-PCR gene expression in HaCaT cells with or without UVA
Protocol: (§1) HaCaT cells were obtained from Prof. Fusenig, German Cancer Research Centre, Heidelberg. […] The accuracy of cell counting was approximately 99%.
(§2) On day 3 of the experiment, cells were washed six times with Ca/Mg-free PBS containing 2% BSA, and then irradiated with light with a Hönle sun lamp Sol 500 (Dr. Hönle, Plannegg, Germany) at a dose of 270 kJ/m^2 in Ca/Mg-free PBS (2 hour exposure time at […]). The experimental schedule was chosen because the cells had optimal UVA sensitivity after 48 hours in culture. […] Confluent cultures were much less sensitive to irradiation.
(§3) After irradiation, the cells were supplied with fresh β-carotene-containing serum-free medium and kept in the incubator at 37° C., 5% CO2 until harvest of the samples. In experiments in which the half-life of ^1O2 was prolonged by D2O to enhance its effect, PBS was prepared in D2O, instead of in H2O, as it was done for the standard conditions described above. Cells were washed twice in D2O-PBS prior to irradiation in D2O-PBS. After irradiation, cells were maintained with fresh β-carotene-containing serum-free medium. Sham controls were treated in an identical manner, by placing them under the solar simulator but shielded from light.
(§4) Total RNA was isolated by using Trizol™ (Invitrogen, Basel, Switzerland) according to the instructions of the manufacturer. Random-primed cDNA was synthesized using the Superscript pre-amplification system for first strand cDNA synthesis (Invitrogen).
(§5) cDNA corresponding to 10 ng total RNA was used as template to quantify the relative RNA expression of the genes of interest by TaqMan® real time PCR.
(§6) The PCR analyses were carried out in triplicate and in a multiplex setup, using 18S rRNA as a calibrator gene. The rRNA primers were used at a final concentration of 50 nM, the probe at 100 nM. For quantification of the genes of interest, the primer concentrations were optimized for sensitivity of template detection. […] PCR reactions were carried out for 40 cycles of 95° C. for 15 seconds and 60° C. for 1 minute in an ABI7700 (Applied Biosystems, Rotkreuz, Switzerland). Regulation of gene expression was calculated as described in user bulletin #2 provided by the manufacturer. A threshold cycle (“CT”) is the first PCR cycle in which an amplification signal is detected. Expression levels are given as δCT values. The δCT value describes the level of gene expression as the average PCR cycle, in which the gene of interest was detected first (CT value), subtracted by the CT value of the calibrator gene 18S rRNA (CTgene of interest−CTcalibrating gene), 18S rRNA served as a measure for the amount of template in the reaction. Routinely, 18S rRNA was detected between PCR cycle 12 and 13 (SE=standard error) A low δCT corresponds to a high mRNA level.

MMP-1 [2] = assay: as above
Protocol: as §1, §2, §3, §4, §5, §6

MMP-3 = assay: as above
Protocol: as §1, §2, §3, §4, §5, §6

TIMP-1 = assay: as above; conditions: vitamin E 50 μM
Protocol: as §1
Vitamin E (RRR-α-tocopherol; DSM Nutritional Products, Kaiseraugst, Switzerland) stock solutions and vitamin E-containing media were prepared as described for β-carotene-containing solutions, except that vitamin E was dissolved in ethanol. In experiments addressing the vitamin E effect, vitamin E was used in a final concentration of 50 μM. Again, the solvent concentration was kept constant at 0.03% ethanol for all conditions.
as §2, with “irradiation. […]” for “irradiation.”
as §5
The PCR analyses were carried out in triplicate and in a multiplex setup, using 18S rRNA as a calibrator gene. […] For quantification of the genes of interest, the primer concentrations were optimized for sensitivity of template detection. […] Regulation of gene expression was calculated as described in user bulletin #2 provided by the manufacturer. A threshold cycle (“CT”) is the first PCR cycle in which an amplification signal is detected. […] The δCT value describes the level of gene expression as the average PCR cycle, in which the gene of interest was detected first (CT value), subtracted by the CT value of the calibrator gene 18S rRNA (CTgene of interest−CTcalibrating gene), 18S rRNA served as a measure for the amount of template in the reaction. Routinely, 18S rRNA was detected between PCR cycle 12 and 13 (SE=standard error) A low δCT corresponds to a high mRNA level.

[3] = vitamin E 50 μM with β-carotene 1.5 μM

| SMILES | UVA-induced MMP-1 secretion (MMP-1 [1]) | cooperation with β-carotene in reducing UVA-induction of MMP-10 (MMP-10; [3]) | MMP-10 expression (MMP-10; vitamin E alone, 50 μM) | cooperation with β-carotene in reducing UVA-induction of MMP-1 (MMP-1 [2]; [3]) | MMP-1 expression (MMP-1 [2]; vitamin E alone, 50 μM) | cooperation with β-carotene in reducing UVA-induction of MMP-3 (MMP-3; [3]) | MMP-3 expression (MMP-3; vitamin E alone, 50 μM) | UVA-suppressed TIMP-1 expression (TIMP-1) |
| --- | --- | --- | --- | --- | --- | --- | --- | --- |
| CC1=C(/C=C/C(C)=C/C=C/C(C)=C/C(=O)O)C(C)(C)CCC1 [RA, retinoic acid] | no effect | – | – | – | – | – | – | – |
| Cc1c(C)c2c(c(C)c1O)CC[C@@](C)(CCC[C@H](C)CCC[C@H](C)CCCC(C)C)O2 [vitamin E, RRR-α-tocopherol] | – | did not cooperate | no effect | did not cooperate | no effect | did not cooperate | no effect | restored |
